In patent US6395762B1, “Phenyl amino squarate and thiadiazole dioxide beta-3 adrenergic receptor agonists” (American Home Products Corporation, priority 2000, dated 2002):
pEC50: −log10 of the molar value.

Legend:
human β3-AR = biological target: T1, human β3-AR (Homo sapiens, UniProt P13945); assay: cAMP accumulation (SPA) in CHO cells transfected with human β3-AR; type: cell-based; conditions: CHO cells transfected with human β3-AR; for pEC50: cAMP by SPA, 30 min at 37° C., 10^−9 M to 10^−5 M, read-out: EC50(β3); for IA(β3): maximal response of compound relative to maximal response of isoproterenol at 10^−5 M
T1 construct: Full-length β3-AR clones (402 amino acids) containing the last 6 amino acids of hβ3-AR; expressed in transfected cells; host or cells: CHO (Chinese hamster ovary) cells
Protocol: The ability of the compounds of this invention to treat or inhibit disorders related to insulin resistance or hyperglycemia was confirmed with representative compounds of this invention in the following standard pharmacological test procedures, which measured the binding selectivity of the β1-, β2-, and β3-AR. Binding to the receptors was measured in Chinese Hamster ovary (CHO) cells that were transfected with β1-, β2-, and β3-AR's. The following briefly summarizes the procedures used and results obtained.
Cloning of Human β3-AR Genomic DNA: cDNA was constructed by ligating four polymerase chain reaction (PCR) products using the following primers: an ATG-Narl fragment, sense primer 5′-[…]3′ and anti-sense primer 5′[…]3′; a Narl-Accl fragment, 5′[…]3′ as sense and 5′[…]3′ as anti-sense primer; an Accli—Styl fragment, sense primer 5′[…]3′ and anti-sense primer 5′[…]3′ and a Styl-TAG fragment, with sense primer 5′ […]3′ and anti-sense primer 5′ […]3′ . The corresponding primer sequences are described in Mantzoros, C. S., et.al., Diabetes, 1996, 45, 909-914. The four fragments are ligated into a pUC 18 plasmid (Gibco-BRL) and sequenced. Full-length β3-AR clones (402 amino acids) containing the last 6 amino acids of hβ3-AR are prepared with the β3-βARpcDNA3 from ATTC.
Binding Procedure: Clones expressing receptor levels of 70 to 110 fmoles/mg protein were used in the test procedures. CHO cells were grown in 24-well tissue culture plates in Dulbecco's Modified Eagle Media with 10% fetal bovine serum, MEM non-essential amino acids, Penicillin—Streptomycin and Geneticin. On the day of test procedure, growth medium was replaced with preincubation media (Dulbecco's Modified Eagle Media) and incubated for 30 minutes at 37° C. Pre-incubation medium was replaced with 0.2 ml treatment medium containing DMEM media containing 250 μM IBMX (isobutyl-1-methylxantine) plus 1 mM ascorbic acid with test compound dissolved in DMSO. Test compounds were assayed over a concentration range of 10^−9 M to 10^−5 M for β3-AR transfected cells and 10^−8 to 10^−4 M for β1-AR and β2-AR transfected cells. Isoproterenol (10^−5 M) was used as an internal standard for comparison of activity. Cells were incubated at 37° C. on a rocker for 30 min with the β3-AR transfected cells and 15 min with β1-AR and β2-AR transfected cells. Incubation was stopped by the addition of 0.2N HCl and the acid was neutralized with 2.5N NaOH. The plates, containing the cells and neutralized media, were stored at −20° C. until ready to test for cAMP using the SPA test kit (Amersham).
Data Analysis and Results: Data collected from the SPA test procedure were analyzed as percent of the maximal isoproterenol response at 10^−5 M. Activity curves were plotted using the SAS statistical and graphics software.

T1 sequence (P13945 whole entry): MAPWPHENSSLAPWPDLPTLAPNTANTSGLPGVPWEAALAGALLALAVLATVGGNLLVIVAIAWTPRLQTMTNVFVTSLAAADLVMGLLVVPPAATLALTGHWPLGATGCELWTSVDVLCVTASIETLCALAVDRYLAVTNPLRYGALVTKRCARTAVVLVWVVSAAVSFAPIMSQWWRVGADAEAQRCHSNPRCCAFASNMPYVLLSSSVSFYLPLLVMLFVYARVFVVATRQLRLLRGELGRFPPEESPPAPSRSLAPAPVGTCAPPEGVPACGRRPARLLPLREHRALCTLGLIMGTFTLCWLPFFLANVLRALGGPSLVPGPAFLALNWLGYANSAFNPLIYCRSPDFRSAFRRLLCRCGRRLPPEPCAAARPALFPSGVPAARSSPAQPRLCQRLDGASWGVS

pEC50 (human β3-AR)	IA(β3) (human β3-AR)	melting point	SMILES
8.00	0.91	154.5 to 158.5 °C	CCCCCCNC(=O)Nc1ccc(C2(CNC3=NS(=O)(=O)N=C3Nc3ccc(CC(C)(C)NC[C@H](O)COc4ccc(O)cc4)cc3)CCCC2)cc1 [Compound 8, 1-Hexyl-3-[4-(1-{[4-(4-{2-[(2S)-2-hydroxy-3-(4-hydroxy-phenoxy)-propylamino]-2-methyl-propyl}-phenylamino)-1,1-dioxo-1H-1.lambda(6).-{1,2,5]thiadiazol-3-ylamino]-methyl}-cyclopentyl)-phenyl]-urea]
8.30	0.91	95 to 100 °C	COc1ccc(CCNC2=NS(=O)(=O)N=C2Nc2ccc(CC(C)NC[C@H](O)COc3ccc(O)cc3)cc2)cc1 (stereo partly drawn) [Compound 36, (S)-4-{2-hydroxy-3-[2-(4-{4-[2-(4methoxy-phenyl)-ethylamino]-1 1-dioxo-1H-1.lambda(6).-[1,2,5]thiadiazol-3-ylamino}-phenyl)-1-methyl-ethylamino]-propoxy}-phenol]
8.05	1.27	120 °C (dec.)	CCCCCCCCCCNC1=NS(=O)(=O)N=C1Nc1ccc(CC(C)NC[C@H](O)c2ccc(O)c(NS(C)(=O)=O)c2)cc1 (stereo partly drawn) [Compound 27, N-[5-((1R)-2-{2-[4-(4-Decylamino-1,1-dioxo-1H-1(lambda(6))-[1 2,5]thiadiazol-3-ylamino)-phenyl]-1-methyl-ethylamino}-1-hydroxy-ethyl)-2-hydroxy-phenyl]-methanesulfonamide]
